{
  "source": "paper PMC4671089",
  "about": "“Enhanced Detection of Antigen-Specific CD4^+ T Cells Using Altered Peptide Flanking Residue Peptide–MHC Class II Multimers” (The Journal of Immunology Author Choice, 2015)",
  "key": {"[1]": {"system": "CD4+ T cell clone 2C5 spiked into PBMCs", "assay": "Clone dilution assay", "format": "cell-based, human", "conditions": "0.125 μg multimer/1 × 10^6 PBMCs", "description": "PBMCs (2 × 10^6) were spiked at 1, 0.5, 0.25, 0.125, 0.0625, or 0.0312% with the CD4^+ T cell clone 2C5. Cell mixtures were then stained with 0.125 μg multimer/1 × 10^6 PBMCs and labeled with Abs as described in the previous section. Samples were acquired directly on a FACSCanto II flow cytometer (BD Biosciences) and analyzed using FlowJo software version 10 (Tree Star)."}, "CD4+ T cell clone DC-C10": {"system": "CD4+ T cell clone DC-C10", "assay": "Multimer staining of CD4+ T cell clone DC-C10", "format": "cell-based, human", "conditions": "histograms, Fig. 6B", "description": "(§1) Clonal CD4^+ T cells (1 × 10^5) specific for HA306–318 were resuspended with 1 μg DR1-Flu1 or DR1-Flu3 multimer and incubated for 20 min at 4°C ([45]). Cells were then washed twice with PBS, stained with Live/Dead fixable violet (ViViD; Invitrogen) for 10 min at room temperature and labeled with mouse anti-human CD4-allophycocyanin (BD Biosciences) for 20 min at 4°C. After two further washes in PBS, samples were acquired directly on a FACSCanto II flow cytometer (BD Biosciences). Data were analyzed using FlowJo software version 10 (Tree Star). All incubations with fluorochrome-conjugated pMHC-II multimers were performed in the dark."}, "[2]": {"system": "Flu1 peptide-stimulated DR1+ PBMCs of donor 4 (CD4+ T cells)", "assay": "Dual multimer staining following PBMC culture", "format": "cell-based, human", "conditions": "dual stain 1 vs dual stain 2, donor 4", "description": "(§2) Flu1 peptide–stimulated, precultured PBMCs (5 × 10^5) were transferred to a 96-well plate and washed with PBS. Cell pellets were resuspended in 25 nM […] dasatinib (Axon Medchem, Reston, VA) and incubated for 30 min at 37°C. For each multimer, 0.5 μg was added directly to the cell pellet before incubating for 20 min on ice in the dark. Where dual staining with both PE- and allophycocyanin-conjugated multimers was used, 0.5 μg each was mixed per sample prior to addition to the cell pellets. Cells were then washed twice with cold PBS, followed by Live/Dead aqua (Life Technologies) staining to exclude dead cells. Surface staining was subsequently performed in PBS, 2.5% FCS, and 5 mM EDTA (FACS buffer), with the following cell surface markers: CD3-PerCP-Cy5.5 (BD Biosciences), CD4–Brilliant Violet 421 (BioLegend), CD14-FITC (BioLegend), and CD19-FITC (BioLegend). Cells were incubated for 20 min at 4°C in the dark before resuspending in FACS buffer for acquisition on a FACSCanto II (BD Biosciences). Data were analyzed using FlowJo version 10 (Tree Star)."}, "2C5 TCR": {"molecular_target": "2C5 TCR", "assay": "SPR equilibrium binding of 2C5 TCR to DR1-peptide", "design": "species or system human", "conditions": "25°C; for Kd: SPR equilibrium binding, Biacore 3000, CM5 chip, biotinylated pMHC-II immobilized on streptavidin, 2C5 TCR injected in eight serial dilutions, 45 μl/min", "description": "Binding analysis was performed using a Biacore 3000 (GE Healthcare) equipped with a CM5 sensor chip, as reported previously ([43], [44]). Between 200 and 400 response units of biotinylated pMHC-II was immobilized on streptavidin, which was chemically linked to the chip surface. pMHC-II was injected at a slow-flow rate (10 μl/min) to ensure uniform distribution on the chip surface. The 2C5 TCR was purified and concentrated to ∼100 μM on the day of analysis to minimize TCR aggregation. For equilibrium analysis, eight serial dilutions were carefully prepared and injected over the relevant sensor chip at a flow rate of 45 μl/min at 25°C. Results were analyzed using BIAevaluation 3.1, Microsoft Excel, and Origin 6.1. The KD values were calculated using a nonlinear curve fit [y = P1x/(P2 + x)]."}, "HA1.7 TCR [3]": {"system": "HA1.7 TCR", "assay": "Thermodynamic analysis (SPR, nonlinear van't Hoff) of HA1.7 TCR ligation", "format": "binding, human", "conditions": "HA1.7-DR1-Flu3, 298 K; Biacore T100; 10 serial dilutions of TCR at 5, 10, 15, 20, 25, 30°C; triplicate", "description": "Thermodynamic analysis of HA1.7 TCR ligation to DR1-Flu3 was performed using a Biacore T100 (GE Healthcare) equipped with a CM5 sensor chip. Activation and pMHC-II loading were assessed as previously described ([40]). A total of 500 response units of biotinylated pMHC-II were immobilized to streptavidin, which was chemically linked to the chip surface. Equilibrium binding analysis was performed with 10 serial dilutions of the TCR individually injected at temperatures of 5, 10, 15, 20, 25, and 30°C. Experiments were performed in triplicate using a blank flow cell, A2-[…] and DR1-CLIP as negative controls in separate experiments. The binding response was determined by subtraction of the response measured on a negative control flow cell from the response measured on flow cells containing DR1-Flu3. Results were analyzed using BIAevaluation 3.1, Microsoft Excel, and Origin 6.1. The KD values were calculated using a nonlinear curve fit [y = (P1x)/(P2 + x)]."}, "[4]": {"system": "CD4+ T cells in DR1+ PBMCs ex vivo", "format": "cell-based, human"}, "[5]": {"system": "CD4+ T cell clone 2C5 spiked at 1% into DR1+ PBMCs", "assay": "Multimer dilution assay", "format": "cell-based, human", "description": "Each multimer was serially diluted six times (1, 0.5, 0.25, 0.125, 0.0625, 0.0312, or 0.0156 μg with respect to the pMHC-II component) and used in a final volume of 20 μl to stain 1 × 10^6 DR1^+ PBMCs spiked at 1% with the CD4^+ T cell clone 2C5. After incubation for 20 min at 4°C, cells were washed twice in PBS, stained with Live/Dead fixable aqua (Invitrogen) for 10 min at room temperature and labeled with mouse anti-human CD3-FITC (Serotec), mouse anti-human CD4-allophycocyanin (BD Biosciences), mouse anti-human CD14–Pacific Blue (Invitrogen), and mouse anti-human CD19–Pacific Blue (Invitrogen) for 20 min at 4°C. After two further washes in PBS, samples were acquired directly on a FACSCanto II flow cytometer (BD Biosciences). Data were analyzed using FlowJo software version 10 (Tree Star)."}, "[6]": {"system": "Flu1 peptide-stimulated DR1+ PBMCs (CD4+ T cells)", "assay": "Multimer staining following PBMC culture", "format": "cell-based, human", "conditions": "four DR1+ donors, 12 d after HA306–318 stimulation", "description": "as §2"}, "CD4+ T cell clone DC-D8": {"system": "CD4+ T cell clone DC-D8", "assay": "Multimer staining of CD4+ T cell clone DC-D8", "format": "cell-based, human", "conditions": "histograms, Fig. 6C", "description": "as §1"}, "CD4+ T cell clone 2C5": {"system": "CD4+ T cell clone 2C5", "assay": "pMHC-II multimer staining of CD4+ T cell clone 2C5", "format": "cell-based, human", "conditions": "DR1-Flu3 versus DR1-Flu1 multimer; 1 μg multimer, 1 × 10^5 cells, 20 min at 4°C", "description": "as §1"}, "[7]": {"system": "CD4+multimer+ T cells in PBMCs after influenza vaccination", "format": "cell-based, human"}, "HA1.7, F11, and C6 TCRs": {"system": "HA1.7, F11, and C6 TCRs", "conditions": "three TCRs HA1.7, F11, C6; presented by DR1; vs Flu1; cited from earlier work"}, "HA1.7 TCR [8]": {"system": "HA1.7 TCR", "conditions": "HA1.7-DR1-Flu1, 298 K, nonlinear regression of temperature vs free energy; previously published; cited from earlier work", "from_the_text": "FIGURE 1. The biophysical impact of altered C-terminal PFRs on TCR binding. SPR was used to determine equilibrium binding of the 2C5 TCR to DR1 complexed with either (A) native Flu1 (HA306−318, […]) or (B) altered Flu3 ([…]). (C) Previously published thermodynamic analysis of the HA1.7-DR1-Flu1 interaction ([40]). (D) HA1.7-DR1-Flu3 thermodynamic properties showing enthalpy (ΔH^o) and entropy (TΔS^o) at 298 K calculated by nonlinear regression of temperature (K) plotted against free energy (ΔG^o). TEXT PRINTED IN THE PICTURE: (A) 2C5-DR1-Flu1: KD = 30 ± 2 μM | (B) 2C5-DR1-F ..."}, "[9]": {"system": "T cells of three DR1+ donors", "assay": "IFN-γ ELISPOT", "format": "cell-based, human", "conditions": "all three donors; data not shown"}},
  "note": "Like-named read-outs stand apart in the source and are kept apart here.",
  "data": [
    {"sequence": "PKYVKQNTLKLAR [DR1-Flu3, HLA-DR1 heterodimer complexed with altered Flu3 ([…]); monomer in SPR, fluorochrome-tagged multimer in staining]", "values": [
      {"measurement": "ability to detect cognate CD4+ T cells across range of spiked frequencies", "setting": "[1]; 2C5 spiked at 1 to 0.0312%, compared with DR1-Flu1", "value": "far superior ability to detect cognate CD4^+ T cells across the entire range of spiked frequencies"},
      {"measurement": "staining of clone DC-C10", "setting": "CD4+ T cell clone DC-C10", "value": "stained"},
      {"measurement": "detection of additional, presumably lower avidity, cells compared with DR1-Flu1", "setting": "[2]", "value": "able to detect additional, presumably lower avidity, cells compared with DR1-Flu1"},
      {"measurement": "Kd", "setting": "2C5 TCR", "value": "16 ± 2", "unit": "µM"},
      {"measurement": "affinity of 2C5 TCR, fold stronger compared with wild-type C-terminal PFR sequence", "setting": "2C5 TCR; SPR, vs DR1-Flu1", "value": "~2", "unit": "fold"},
      {"measurement": "TΔS°", "setting": "HA1.7 TCR [3]", "value": 20, "unit": "kcal/mol"},
      {"measurement": "ΔH°", "setting": "HA1.7 TCR [3]", "value": 16.4, "unit": "kcal/mol"},
      {"measurement": "MFI, fold higher than DR1-Flu1", "setting": "[4]", "value": 3, "unit": "fold"},
      {"measurement": "proportion of CD4+ T cells stained compared with DR1-Flu1 multimer", "setting": "[4]", "value": "stained a higher proportion of CD4^+ T cells"},
      {"measurement": "identification of CD4+multimer+ population at 1 μg/1 × 10^6 PBMCs", "setting": "[5]; PBMCs spiked at 1% with 2C5, 20 min at 4°C", "value": "enabled clear visualization and accurate enumeration"},
      {"measurement": "lowest multimer concentration with distinct staining", "setting": "[5]; PBMCs spiked at 1% with 2C5, 20 min at 4°C, distinct staining at concentrations down to this value", "value": 0.0312, "unit": "μg/1 × 10^6 PBMCs"},
      {"measurement": "optimal quantity of multimer per stain", "setting": "[5]; greatest shift in MFI while reducing potential nonspecific staining", "value": 0.125, "unit": "μg/1 × 10^6 PBMCs"},
      {"measurement": "CD4+multimer+ population size and MFI compared with DR1-Flu1 multimer", "setting": "[6]", "value": "detected larger populations of CD4^+multimer^+ cells, with generally greater MFIs"},
      {"measurement": "staining of clone DC-D8", "setting": "CD4+ T cell clone DC-D8", "value": "stained"},
      {"measurement": "mean fluorescence intensity (MFI) of staining of 2C5 clone", "setting": "CD4+ T cell clone 2C5", "value": "A large increase in mean fluorescence intensity (MFI)"},
      {"measurement": "population of CD4+ T cells identified compared with DR1-Flu1 multimer", "setting": "[7]", "value": "identified a larger population of CD4^+ T cells"}
    ]},
    {"sequence": "PKYVKQNTLKLAR [Flu3, C-terminally modified variants of HA306−318 with Arg at P11 (Flu3, […])]", "values": [
      {"measurement": "binding affinity increase", "setting": "HA1.7, F11, and C6 TCRs", "value": "~2", "unit": "fold"}
    ]},
    {"sequence": "PKYVKQNTLKLAT [DR1-Flu1, HLA-DR1 heterodimer complexed with native Flu1 (HA306−318, …); monomer in SPR, fluorochrome-tagged multimer in staining]", "values": [
      {"measurement": "spiked frequency at which precise quantification was almost impossible", "setting": "[1]; poor separation", "value": "≤ 0.25", "unit": "%"},
      {"measurement": "staining of clone DC-C10", "setting": "CD4+ T cell clone DC-C10", "value": "stained"},
      {"measurement": "TΔS°", "setting": "HA1.7 TCR [8]", "value": 23.8, "unit": "kcal/mol"},
      {"measurement": "ΔH°", "setting": "HA1.7 TCR [8]", "value": 18, "unit": "kcal/mol"},
      {"measurement": "Kd", "setting": "2C5 TCR", "value": "30 ± 2", "unit": "µM"},
      {"measurement": "identification of cognate CD4+ T cells at lower reagent concentrations", "setting": "[5]; below 1 μg/1 × 10^6 PBMCs, PBMCs spiked at 1% with 2C5", "value": "failed to identify cognate CD4^+ T cells"},
      {"measurement": "staining of clone DC-D8", "setting": "CD4+ T cell clone DC-D8", "value": "stained"}
    ]},
    {"sequence": "PKYVKQNTLKLAT [Flu1, influenza HA306–318 (Flu1), …]", "values": [
      {"measurement": "T cell responses in IFN-γ ELISPOT assays", "setting": "[9]", "value": "robust T cell responses"}
    ]}
  ]
}
